Measured values taken from ChEMBL document CHEMBL6083208, “Integrating amino acids into Bcr-Abl inhibitors: design, synthesis, biological evaluation, and in silico studies” (RSC Med Chem, 2024).
Blank lines part the entries; values can stand above or below the compound they belong to. The source made the active and inactive calls. The rule behind the calls is not given here.

Tests used:
HEK293 = assay: Antiproliferative activity against HEK293 cells after 48 hrs by MTT assay; format: toxicity, cell-based; parameters: concentration or dose not given beside the values; conditions: human, hek293, 48 h
K562 [1] = assay: cells; conditions: Homo sapiens, K562, 48 h
K562 [2] = assay: cells; conditions: Homo sapiens, K562, 48 h, read-out: Activity
K562 [3] = assay: cells; conditions: Homo sapiens, K562, 48 h, read-out: Activity; remark: listed apart in the source
THP-1 = assay: Antiproliferative activity against human THP-1 cells after 48 hrs by MTT assay; format: functional; parameters: concentration or dose not given beside the values
K562 [4] = assay: cells; conditions: Homo sapiens, K562, 48 h, read-out: Activity; remark: listed apart in the source
K562 [5] = assay: Induction of cell cycle arrest in human K562 cells assessed as increase in accumulation of cells at G0/G1 phase at 1 to 15 uM measured after 48 hrs by PI staining based flow cytometry analysis; format: functional; conditions: dose 1-15 µM
K562 [6] = assay: Induction of apoptosis in human K562 cells assessed as viable cells at 10 uM measured after 48 hrs by annexin-V/FITC and propidium iodide double staining based flow cytometry analysis (reference value: 85.73%); format: functional; conditions: read-out: Activity
[7] = biological target: T1, Bcr/Abl fusion protein (Homo sapiens) (UniProt P00519+P11274); assay: Inhibition of wild type BCR-ABL in human K562 cells assessed as inhibition of STAT5 phosphorylation level at 20 uM measured after 48 hrs by Western blot analysis; format: cell-based
K562 [8] = assay: Induction of apoptosis in human K562 cells assessed as necrotic cells at 15 uM measured after 48 hrs by annexin-V/FITC and propidium iodide double staining based flow cytometry analysis (reference value: 0.27%); format: functional
K562 [9] = assay: Induction of apoptosis in human K562 cells assessed as early apoptotic cells at 15 uM measured after 48 hrs by annexin-V/FITC and propidium iodide double staining based flow cytometry analysis (reference value: 1.96%); format: functional
BaF3 [10] = assay: Antiproliferative activity against mouse BaF3 cells harbouring Bcr-Abl T315I assessed of cell viability at 10 uM incubated for 72 hrs by Celltiter-glo luminescent cell viability assay relative to control; format: functional
BaF3 [11] = assay: Antiproliferative activity against mouse BaF3 cells harbouring Bcr-Abl T315I assessed of cell viability at 30 uM incubated for 72 hrs by Celltiter-glo luminescent cell viability assay relative to control; format: functional
K562 [12] = assay: Induction of apoptosis in human K562 cells assessed as viable cells at 15 uM measured after 48 hrs by annexin-V/FITC and propidium iodide double staining based flow cytometry analysis (reference value: 85.73%); format: functional; conditions: read-out: Activity
BaF3 [13] = assay: Antiproliferative activity against mouse BaF3 cells harbouring Bcr-Abl T315I assessed of cell viability at 2 uM incubated for 72 hrs by Celltiter-glo luminescent cell viability assay relative to control; format: functional
K562 [14] = assay: Induction of apoptosis in human K562 cells assessed as late apoptotic cells at 1 uM measured after 48 hrs by annexin-V/FITC and propidium iodide double staining based flow cytometry analysis (reference value: 12.03%); format: functional
K562 [15] = assay: Induction of apoptosis in human K562 cells assessed as necrotic cells at 1 uM measured after 48 hrs by annexin-V/FITC and propidium iodide double staining based flow cytometry analysis (reference value: 0.27%); format: functional
K562 [16] = assay: Induction of apoptosis in human K562 cells assessed as early apoptotic cells at 10 uM measured after 48 hrs by annexin-V/FITC and propidium iodide double staining based flow cytometry analysis (reference value: 1.96%); format: functional
K562 [17] = assay: Induction of apoptosis in human K562 cells assessed as late apoptotic cells at 15 uM measured after 48 hrs by annexin-V/FITC and propidium iodide double staining based flow cytometry analysis (reference value: 12.03%); format: functional
[18] = Inhibition of Bcr-Abl T315Ialpha mutant (unknown origin) using Abltide as substrate incubated for 1 hr by luminescence based ADP-glo assay; parameters: species or system Homo sapiens
[19] = biological target: T1, Bcr/Abl fusion protein (Homo sapiens); assay: Inhibition of wild type BCR-ABL in human K562 cells assessed as inhibition of Bcr-Abl phosphorylation level at high concentration measured after 48 hrs by Western blot analysis; format: cell-based
[20] = biological target: T1, Bcr/Abl fusion protein (Homo sapiens); assay: Inhibition of wild type BCR-ABL in human K562 cells assessed as inhibition of Bcr-Abl phosphorylation level at 20 uM measured after 48 hrs by Western blot analysis; format: cell-based
K562 [21] = assay: Induction of apoptosis in human K562 cells assessed as early apoptotic cells at 1 uM measured after 48 hrs by annexin-V/FITC and propidium iodide double staining based flow cytometry analysis (reference value: 1.96%); format: functional
K562 [22] = assay: Induction of apoptosis in human K562 cells assessed as late apoptotic cells at 10 uM measured after 48 hrs by annexin-V/FITC and propidium iodide double staining based flow cytometry analysis (reference value: 12.03%); format: functional
K562 [23] = assay: Induction of apoptosis in human K562 cells assessed as viable cells at 1 uM measured after 48 hrs by annexin-V/FITC and propidium iodide double staining based flow cytometry analysis (reference value: 85.73%); format: functional; conditions: read-out: Activity
[24] = biological target: T1, Bcr/Abl fusion protein (Homo sapiens); assay: Inhibition of wild type BCR-ABL in human K562 cells assessed as inhibition of STAT5 phosphorylation level at high concentration measured after 48 hrs by Western blot analysis; format: cell-based
K562 [25] = assay: Induction of apoptosis in human K562 cells assessed as necrotic cells at 10 uM measured after 48 hrs by annexin-V/FITC and propidium iodide double staining based flow cytometry analysis (reference value: 0.27%); format: functional
Bcr/Abl fusion protein = Bcr/Abl fusion protein (Homo sapiens, UniProt P00519); assay: Inhibition of wild type Bcr-Abl (unknown origin) using Abltide as substrate incubated for 1 hr by luminescence based ADP-glo assay; format: protein assay
K562 [26] = assay: Induction of cell cycle arrest in human K562 cells assessed as reduction in accumulation of cells at S phase at 1 to 15 uM measured after 48 hrs by PI staining based flow cytometry analysis; format: functional; conditions: dose 1-15 µM

T1 sequence (P00519 whole entry, looked up, the tested form may be a part): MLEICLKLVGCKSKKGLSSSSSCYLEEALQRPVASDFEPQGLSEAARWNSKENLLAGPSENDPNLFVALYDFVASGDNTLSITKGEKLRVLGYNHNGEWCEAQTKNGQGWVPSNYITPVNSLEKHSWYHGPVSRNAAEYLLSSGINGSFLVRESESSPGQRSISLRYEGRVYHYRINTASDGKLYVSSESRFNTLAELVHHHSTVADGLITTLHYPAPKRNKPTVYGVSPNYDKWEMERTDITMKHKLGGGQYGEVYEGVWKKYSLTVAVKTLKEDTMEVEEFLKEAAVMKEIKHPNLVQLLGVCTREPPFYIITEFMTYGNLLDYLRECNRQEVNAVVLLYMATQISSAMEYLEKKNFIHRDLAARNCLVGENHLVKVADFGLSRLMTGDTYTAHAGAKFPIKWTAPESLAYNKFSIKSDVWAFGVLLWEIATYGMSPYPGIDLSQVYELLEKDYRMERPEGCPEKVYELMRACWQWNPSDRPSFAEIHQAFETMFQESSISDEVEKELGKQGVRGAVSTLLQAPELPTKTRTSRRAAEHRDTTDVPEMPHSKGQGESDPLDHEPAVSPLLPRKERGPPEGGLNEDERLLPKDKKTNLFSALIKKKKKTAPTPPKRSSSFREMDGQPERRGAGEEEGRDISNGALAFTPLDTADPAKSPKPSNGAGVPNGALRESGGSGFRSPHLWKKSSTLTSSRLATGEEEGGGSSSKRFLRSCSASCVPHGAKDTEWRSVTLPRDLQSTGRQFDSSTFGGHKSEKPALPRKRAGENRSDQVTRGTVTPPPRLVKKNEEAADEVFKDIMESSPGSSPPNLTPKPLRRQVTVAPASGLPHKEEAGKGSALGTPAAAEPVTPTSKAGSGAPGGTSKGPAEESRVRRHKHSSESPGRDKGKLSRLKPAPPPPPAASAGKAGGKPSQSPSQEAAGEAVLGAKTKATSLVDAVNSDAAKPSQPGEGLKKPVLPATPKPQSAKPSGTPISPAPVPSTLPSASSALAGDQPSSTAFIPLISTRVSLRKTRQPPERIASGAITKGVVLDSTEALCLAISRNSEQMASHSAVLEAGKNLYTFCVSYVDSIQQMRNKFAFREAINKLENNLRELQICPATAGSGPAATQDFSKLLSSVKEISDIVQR
T1 sequence (P11274 whole entry, looked up, the tested form may be a part): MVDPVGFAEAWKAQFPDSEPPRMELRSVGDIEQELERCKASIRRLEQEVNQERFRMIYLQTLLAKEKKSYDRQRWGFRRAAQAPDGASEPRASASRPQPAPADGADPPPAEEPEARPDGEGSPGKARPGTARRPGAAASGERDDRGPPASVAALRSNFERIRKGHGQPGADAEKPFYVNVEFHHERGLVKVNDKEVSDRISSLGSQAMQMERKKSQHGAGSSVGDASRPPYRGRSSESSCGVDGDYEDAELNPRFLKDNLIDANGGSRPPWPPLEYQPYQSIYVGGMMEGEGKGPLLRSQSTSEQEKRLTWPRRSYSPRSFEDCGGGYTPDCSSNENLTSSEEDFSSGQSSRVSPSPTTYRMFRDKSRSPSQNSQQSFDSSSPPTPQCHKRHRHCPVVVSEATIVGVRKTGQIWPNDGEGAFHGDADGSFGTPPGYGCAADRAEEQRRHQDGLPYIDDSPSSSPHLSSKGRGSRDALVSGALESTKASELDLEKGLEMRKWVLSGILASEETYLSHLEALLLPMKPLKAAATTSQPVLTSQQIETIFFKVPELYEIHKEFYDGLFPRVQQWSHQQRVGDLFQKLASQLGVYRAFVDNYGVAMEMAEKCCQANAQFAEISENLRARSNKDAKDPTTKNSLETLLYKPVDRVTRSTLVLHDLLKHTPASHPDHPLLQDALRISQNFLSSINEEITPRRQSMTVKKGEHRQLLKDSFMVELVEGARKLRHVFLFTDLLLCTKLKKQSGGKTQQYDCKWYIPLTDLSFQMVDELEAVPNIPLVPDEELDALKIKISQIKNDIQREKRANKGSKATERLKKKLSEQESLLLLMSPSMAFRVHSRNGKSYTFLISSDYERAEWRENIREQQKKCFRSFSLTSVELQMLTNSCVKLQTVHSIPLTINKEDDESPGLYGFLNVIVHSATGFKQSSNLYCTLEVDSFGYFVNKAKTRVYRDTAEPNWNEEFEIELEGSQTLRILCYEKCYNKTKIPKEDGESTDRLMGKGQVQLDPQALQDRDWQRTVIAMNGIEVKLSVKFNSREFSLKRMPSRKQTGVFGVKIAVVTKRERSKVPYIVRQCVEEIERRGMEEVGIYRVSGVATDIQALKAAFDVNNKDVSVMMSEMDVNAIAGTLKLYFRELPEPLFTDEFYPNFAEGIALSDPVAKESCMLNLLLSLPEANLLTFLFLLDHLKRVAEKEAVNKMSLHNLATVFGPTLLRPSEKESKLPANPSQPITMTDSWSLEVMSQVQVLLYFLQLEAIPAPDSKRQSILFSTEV
Sequence of Bcr/Abl fusion protein (P00519 whole entry, the tested form may be a part): as the sequence (P00519 whole entry, looked up, the tested form may be a part) above
Sequence of Bcr/Abl fusion protein (P11274 whole entry, further chain, the tested form may be a part): as the sequence (P11274 whole entry, looked up, the tested form may be a part) above

SMILES: Cc1ccc(NC(=O)c2ccc(CN3CCN(C)CC3)cc2)cc1Nc1nccc(-c2cccnc2)n1 [IMATINIB]
Activity (HEK293): 87% | IC50 (K562 [1]): 2.03 nM | viability at 10 µM (K562 [2]): 67.4% | viability at 5 µM (K562 [3]): 74.3% | Activity (THP-1): 100% | viability at 1 µM (K562 [4]): 72.9%

inhibition [7]: Active | IC50 (K562 [1]): 2.04 nM | IC50 [18]: 122 nM | inhibition [19]: Active | inhibition [20]: Active | inhibition [24]: Active | IC50 (Bcr/Abl fusion protein): 5.01 nM
SMILES: CC(C)(C)C(=O)Nc1cc(-c2ccc(C(=O)N[C@@H](CO)C(=O)Nc3ccc(Cl)c(C(F)(F)F)c3)cc2)ccn1
Activity (K562 [5]): inactive | viability at 10 µM (K562 [6]): 74.4% | Activity (HEK293): 87% | Activity (K562 [8]): 3.98% | Activity (K562 [9]): 2.21% | inhibition at 10 µM (BaF3 [10]): 99.9% | inhibition at 30 µM (BaF3 [11]): 99.2% | viability at 15 µM (K562 [12]): 69.6% | inhibition at 2 µM (BaF3 [13]): 0.2% | Activity (K562 [14]): 16.63% | Activity (K562 [15]): 1.75% | Activity (K562 [16]): 2.83% | Activity (K562 [17]): 24.21% | Activity (THP-1): 54% | Activity (K562 [21]): 5.12% | Activity (K562 [22]): 21.34% | viability at 1 µM (K562 [23]): 76.5% | Activity (K562 [25]): 1.39% | Activity (K562 [26]): inactive
